Experimental data as given in US9068018B2, “Methods of using voltage-gated Hv1 proton channels to detect changes in intracellular pH” (Children's Medical Center Corporation, priority 2006, dated 2015).
Positions count from the first letter of the chain named.

Legend:
[1] = test system: human airway epithelial cultures; conditions: background description; cited from earlier work
GFP-hHv1 G199C mutant = biological target: T1, GFP-hHv1 G199C mutant (Homo sapiens, UniProt Q96D96, G199C); experiment: Patch-clamp currents of GFP-hHv1 G199C mutant in transfected HEK cells; format: cell-based; conditions: G199C mutant (engineered Cys at residue 199); FIG. 3
T1 construct: expressed in transfected cells; host or cells: HEK-293 cell clone HM1 (stably expresses the human muscarinic M1 receptor)
T1 sequence (Q96D96 1-273 G199C): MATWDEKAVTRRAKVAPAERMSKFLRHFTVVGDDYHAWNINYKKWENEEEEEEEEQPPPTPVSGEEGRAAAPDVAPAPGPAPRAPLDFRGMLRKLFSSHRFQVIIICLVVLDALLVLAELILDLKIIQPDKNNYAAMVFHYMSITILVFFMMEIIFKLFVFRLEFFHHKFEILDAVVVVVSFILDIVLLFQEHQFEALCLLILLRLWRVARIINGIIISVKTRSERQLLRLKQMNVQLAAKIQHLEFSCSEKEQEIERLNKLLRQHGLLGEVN

wt GFP-hHv1 = biological target: T2, wt GFP-hHv1 (Homo sapiens, UniProt Q96D96); experiment: Patch-clamp currents of wt GFP-hHv1 in transfected HEK cells; format: cell-based; conditions: wild-type channel
T2 construct: expressed in transfected cells; host or cells: HEK-293 cell clone HM1 (stably expresses the human muscarinic M1 receptor)
T2 sequence (Q96D96 1-273): T1 sequence (Q96D96 1-273 G199C) with C199G

T lymphocytes = conditions: one day after stimulation; cited from earlier work

Compound	effect on acid secretion across the epithelium [1]	other results
Nc1ncnc2c1ncn2[C@@H]1O[C@H](COP(=O)(O)OP(=O)(O)OP(=O)(O)O)[C@@H](O)[C@H]1O [ATP]	stimulated	
C[N+](C)(C)CCSS(C)(=O)=O [MTSET, 2-(trimethylammonium)methanethiosulfonate]		effect on hHv1 currents (GFP-hHv1 G199C mutant): modulate hHv1 currents; effect on wt GFP-hHv1 currents (wt GFP-hHv1): little effect
CCCCCCCCCCCCCC(=O)O[C@@H]1[C@@H](C)[C@@]2(O)[C@@H](C=C(CO)C[C@]3(O)C(=O)C(C)=C[C@@H]23)[C@@H]2C(C)(C)[C@]12OC(C)=O [PMA, phorbol 12-myristate 13-acetate]		increase of H+ currents in T lymphocytes (T lymphocytes): 13 fold
Cc1nc2c(OCc3ccccc3)cccn2c1CC#N [Sch-28080]	not	
[Cl-].[Cl-].[Zn+2] [ZnCl2]	inhibited	
N=C(N)NC(=O)c1nc(Cl)c(N)nc1N [amiloride]	not	
CO/C1=C\C(C)=C\[C@@H](C)[C@@H](O)[C@@H](C)C/C(C)=C/C=C/[C@H](OC)[C@@H]([C@@H](C)[C@@H](O)[C@H](C)[C@@]2(O)C[C@@H](O)[C@H](C)[C@@H](C(C)C)O2)OC1=O [bafilomycin A1]	not	
NCCc1c[nH]cn1 [histamine]	stimulated	
C[C@@H]1O[C@@H](O[C@H]2C[C@@H](O)[C@]3(CO)[C@H]4[C@H](O)C[C@]5(C)[C@@H](C6=CC(=O)OC6)CC[C@]5(O)[C@@H]4CC[C@]3(O)C2)[C@H](O)[C@H](O)[C@H]1O [ouabain]	not	
